One assay has as its system IL-15Rα. Nature of the assay: IL-15Ralpha expression by flow cytometry. Format: cell-based, human. The settings on record: OKT3 stimulated lymphocytes, FIG. 15. From the text:
In vitro, supraphysiologic levels of cytokine can engage intermediate and low affinity IL-15 receptors on lymphocytes lacking IL-15Rα. […] IL-15Rα was detected with a polyclonal, biotinylated antibody and biotinylated isotype-matched control antibody; cell surface-bound antibody was then labeled with streptavidin-PE (R&D Systems). PE was detected through flow cytometry.
(In general: Flow cytometry measures light scatter and fluorescence of single cells or particles in a stream.)

The test system of another assay is CTLL-2 cells. The assay can be described thus: CTLL-2 proliferation assay (3H-thymidine). The assay is classed as cell-based, mouse. The conditions noted are these: Sup-T1 supernatants or control cytokine, 24 h. Here is the method:
The CTLL-2 assay was used to determine whether IL-15 produced by transduced Sup-T1 cells was biologically active.
CTLL-2 cells were grown in culture for 4 days and then harvested and washed twice in PBS and then plated into a 96-well plate, 5×10^3 cells/well. The CTLL-2 cells were incubated in the absence of cytokines for 4 hours. Supernatants from the transduced Sup-T1 cells were then added to the culture in serial dilutions. […] The CTLL-2 cells were cultured for a total of 24 hours; during the final six hours ^3H-Thymidine was added to each well. The CTLL-2 cells were harvested to a filter and read on a β-counter.

Take “IL-15: exogenous recombinant human IL-15 added to culture media”: the IL-15Rα staining result with IL-15Rα is reported as “did not manifest IL-15Rα staining”. In addition, the “proliferation of CTLL-2” value in the assay with CTLL-2 cells was “did proliferate”.

The record behind these values is patent publication US7998736B2, “Adoptive immunotherapy with enhanced T lymphocyte survival” (The United States of America as represented by the …, priority 2004, dated 2011).
